The term IC50 denotes the concentration that gives 50% inhibition.

Drawing on US12655139B2, “Isoxazolidines as RIPK1 inhibitors and use thereof” (SANOFI, priority 2020, dated 2026), this text covers IC50 for 41 compounds.

In this assay the test system is U937 cells. Description: Cellular assay in U937 cells on cell death (necroptosis), TNFα/zVAD.fmk. Particulars: Homo sapiens. The format is cell-based. From the text:
Cellular Assay in U937 Cells to Measure the Activity of RIPK1-Inhibitors on Cell Death (Necroptosis).
Cell death was quantified in 96 well plates by determination of the amount of live cell using a CellTiter 96 AQueous reagent (Promega), a calorimetric method to measure the amount of live cells by reducing tetrazolium compound [3-(4,5-dimethylthiazol-2-yl)-5-(3-carboxymethoxyphenyl)-2-(4-sulfophenyl)-2H-tetrazolium, inner salt; MTS] into formazan. Absorbance of formazan was read at 490 nm. The inhibitory activity of the test compound was quantified in a concentration response curve (CRC) experiment. Compounds were obtained as 10 mM stock solutions and were diluted 1 to 10 volumes with DMSO to yield a 1 mM solution. From this solution 2 μl were diluted with 998 μl growth medium. 100 μl of 2 μM compound solution was further diluted sequentially with a dilution factor of 2.5 by adding 150 μl growth medium. A total of 10 concentrations were tested ranging from 10 μM to 0.26 nM or from 1 μM to 0.07 nM.
U937 cells were cultured in RPMI1640 Glutamax and 10% heat inactivated FBS. 50 μl cell suspension containing 1×10^6 cells/ml supplemented with 50 μM zVAD.fmk (Benzyloxycarbonyl-Val-Ala-Asp (OMe) fluoromethylketone) and 100 ng/ml recombinant human TNFα were dispensed in each well of a 96-well plate. 50 μl of compound dilutions (see above) were added and the cell suspension incubated overnight (18 to 24 hours) at 37° C., 5% CO2 in a humidified atmosphere (95% rH). High (no compound) and low control (no TNFα, zVAD.fmk) were tested with 7 replicates; all compound concentrations were tested in duplicates on each experimental plate.
CellTiter 96 Aqueous reagent was mixed (100 μl PMS (phenazine methosulfate) solution/2 ml MTS (3-(4,5-[…])-5-(3-carboxymethoxyphenyl)-2-(4-sulfophenyl)-2H-tetrazolium, inner salt) solution) and 20 μl were added per well. After 4 hours incubation at 37° C. (5% CO2 95% rH) optical density was measured at 490 nm on a microplate reader (Tecan Infinite M1000).
The % inhibition is expressed as percentage of the maximal inhibition value obtained in the absence of TNFα/zVAD.fmc.

The mark [1] stands for this setting: U-937, Table 2, read-out: U937 IC50.
Setting [2] is: U-937, Comparator table 5, read-out: U937 IC50 (uM) Mean.

Each structure is given as a SMILES string. Where a name gives a salt, the structure may show the parent alone. Read-outs that look alike come from different tables or passages of the source.

Consider `N#Cc1cncc([C@@H]2CCON2C(=O)C2CCN(c3ncc(F)c(O)n3)CC2)c1` [compound 125, 5-[(3S)-2-[1-(5-fluoro-4-hydroxy-pyrimidin-2-yl)piperidine-4-carbonyl]isoxazolidin-3-yl]pyridine-3-carbonitrile], for which the IC50 under setting [1] came out at 8.65 µM.

Take `N#Cc1cncc([C@@H]2CCON2C(=O)C2CCN(c3ccnc(N)n3)CC2)c1` [compound 148, 5-[(3S)-2-[1-(2-aminopyrimidin-4-yl)piperidine-4-carbonyl]isoxazolidin-3-yl]pyridine-3-carbonitrile]: the IC50 under setting [1] was found to be 2.21 µM.

With `CCN1CCC(CNC(=O)c2ccnc(N3CCC(C(=O)N4OCC[C@H]4c4cncc(C#N)c4)CC3)n2)CC1` [Ex. 079], the IC50 under setting [1] is 1.67 µM.

As to `Cc1ccc([C@@H]2CCON2C(=O)C2CCN(c3cc(C(N)=O)ncn3)CC2)cn1` [compound 135, (S)-6-(4-(3-(6-methylpyridin-3-yl)isoxazolidine-2-carbonyl)piperidin-1-yl)pyrimidine-4-carboxamide], under setting [1], the IC50 came out at 0.491 µM.

In the case of `NC(=O)c1ccnc(N2CCC(C(=O)N3OCCC3c3ccc(O)nc3)CC2)n1` (centres unmarked) [Ex. 022], under setting [1], the IC50 was more than 10 µM.

As for `NC(=O)c1ccnc(N2CCC(C(=O)N3OCC[C@H]3c3cncc(N4CCCC4=O)c3)CC2)n1` [Ex. 060], the IC50 under setting [1] stood at 7.31 µM.

For the compound `NC(=O)c1nc(N2CCC(C(=O)N3OCC[C@H]3c3ccc(Cl)cn3)CC2)ncc1F` [Ex. 084], the IC50 under setting [1] is 0.0178 µM.

For the compound `N#Cc1cncc([C@@H]2CCON2C(=O)C2CCN(c3nccc(C(N)=O)n3)CC2)n1` [Ex. 118], under setting [1], the IC50 is 0.00761 µM.

For the compound `N#Cc1cncc([C@@H]2CCON2C(=O)C2CCN(c3cc(C#N)ccn3)CC2)c1` [Ex. 017], the IC50 under setting [1] is 0.343 µM.

For the compound `NC(=O)c1cncc([C@@H]2CCON2C(=O)C2CCN(c3ncc(F)c(C(N)=O)n3)CC2)c1` [Ex. 101], the IC50 under setting [1] worked out at 0.442 µM.

On to `Cc1cncc([C@@H]2CCON2C(=O)C2CCN(c3nccc(C(N)=O)n3)CC2)c1` [compound 132, (S)-2-(4-(3-(5-methylpyridin-3-yl)isoxazolidine-2-carbonyl)piperidin-1-yl)pyrimidine-4-carboxamide], for which the IC50 under setting [1] was determined as 0.0319 µM.

For `NC(=O)c1ccnc(N2CCC(C(=O)N3OCC[C@H]3c3cncnc3)CC2)n1` [Ex. 003], the IC50 under setting [1] stood at 0.29 µM.

`CC(C)(C)OC(=O)N1CC[C@@H](C(=O)N2OCC[C@H]2c2cncc(F)c2)[C@@H](F)C1` [F, reference compound]: the concentration for half-maximal inhibition (IC50) under setting [2] is more than 10 µM.

Regarding `NC(=O)c1ccnc(N2CCC(C(=O)N3OCCC3c3ccc4nccn4c3)CC2)n1` (racemic) [Ex. 012*], the 50% inhibitory concentration (IC50) under setting [1] amounted to 7.26 µM.

For `N#Cc1cncc([C@@H]2CCON2C(=O)C2CCN(c3nccc(C(=O)NC4CNC4)n3)CC2)c1` [Ex. 086, N-(Azetidin-3-yl)-2-[4-[(3S)-3-(5-cyano-3-pyridyl)isoxazolidine-2-carbonyl]-1-piperidyl]pyrimidine-4-carboxamide TFA salt], the IC50 under setting [1] was 8.68 µM.

`COc1nc(Cl)nc(N2CCC(C(=O)N3OCC[C@H]3c3cnccn3)CC2)n1` [compound 181, [1-(4-chloro-6-methoxy-1,3,5-triazin-2-yl)-4-piperidyl]-[(3S)-3-pyrazin-2-ylisoxazolidin-2-yl]methanone]: the IC50 under setting [1] was 0.0301 µM.

`CCOC(=O)COc1nc(N2CCC(C(=O)N3OCC[C@H]3c3cncc(C#N)c3)CC2)ncc1F` [Ex. 027, Ethyl 2-[2-[4-[(3S)-3-(5-cyano-3-pyridyl)isoxazolidine-2-carbonyl]-1-piperidyl]-5-fluoro-pyrimidin-4-yl]oxyacetate]: the IC50 under setting [1] came out at 0.528 µM.

In the case of `N#Cc1ccc([C@@H]2CCON2C(=O)C2CCN(c3ncc(F)c(C#N)n3)CC2)nc1` [compound 112, 2-[4-[(3S)-3-(5-cyano-2-pyridyl)isoxazolidine-2-carbonyl]-1-piperidyl]-5-fluoro-pyrimidine-4-carbonitrile], the IC50 under setting [1] is 0.0755 µM.

Take `NC(=O)c1ccnc(N2CCC(C(=O)N3OCC[C@H]3c3cc(F)cc(F)c3)CC2)n1` [E, reference compound]: the IC50 under setting [2] came out at 0.002 µM.

`Cc1ccc([C@@H]2CCON2C(=O)C2CCN(c3cc(C#N)ncn3)CC2)cn1` [compound 128, (S)-6-(4-(3-(6-methylpyridin-3-yl)isoxazolidine-2-carbonyl)piperidin-1-yl)pyrimidine-4-carbonitrile]: the IC50 under setting [1] worked out at 0.224 µM.

`COc1cncc([C@@H]2CCON2C(=O)C2CCN(c3ncc(F)c(C(N)=O)n3)CC2)n1` [Ex. 177]: under setting [1], the IC50 amounted to 0.00586 µM.

For the compound `Cc1ncc([C@@H]2CCON2C(=O)C2CCN(c3nccc(C#N)n3)CC2)cc1F` [compound 136, (S)-2-(4-(3-(5-fluoro-6-methylpyridin-3-yl)isoxazolidine-2-carbonyl)piperidin-1-yl)pyrimidine-4-carbonitrile], the IC50 under setting [1] came to 0.0204 µM.

Consider `Cn1ccc(C2CCON2C(=O)C2CCN(c3nccc(C(N)=O)n3)CC2)n1` (racemic) [Ex. 002*], for which the IC50 under setting [1] came to 1.83 µM.

Regarding `NC(=O)c1cncc(C2CCON2C(=O)C2CCN(c3nccc(C(N)=O)n3)CC2)c1` (racemic) [Ex. 029*], the IC50 under setting [1] came out at 2.2 µM.

In the case of `CC(=O)Nc1cncc([C@@H]2CCON2C(=O)C2CCN(c3nccc(C(N)=O)n3)CC2)c1` [Ex. 043], the IC50 under setting [1] came to 2.7 µM.

In the case of `CC1(C(=O)N2OCC[C@H]2c2cncc(C#N)c2)CCN(c2ncc(F)c(OCC#N)n2)CC1` [Ex. 018], under setting [1], the IC50 was determined as 0.0103 µM.

As to `N#Cc1cncc([C@@H]2CCON2C(=O)C2CCN(c3nccc(Br)n3)CC2)c1` [Ex. 161], the IC50 under setting [1] was 0.02 µM.

On to `CNC(=O)c1cncc(C2CCON2C(=O)C2CCN(c3cc(C(N)=O)ncn3)CC2)c1` (racemic) [Example 041], for which the IC50 under setting [1] was more than 10 µM.

With `NC(=O)c1ccnc(N2CCC(C(=O)N3OCC[C@H]3c3cnccn3)CC2)n1` [Ex. 074], under setting [1], the IC50 was determined as 0.00975 µM.

As for `N#Cc1cncc([C@@H]2CCON2C(=O)C2CCN(c3cc(C#N)ncn3)CC2)c1` [Ex. 005], under setting [1], the IC50 stood at 0.115 µM.

As to `N#Cc1nc([C@@H]2CCON2C(=O)C2CCN(c3nccc(C(N)=O)n3)CC2)cs1` [Ex. 188], the concentration for half-maximal inhibition (IC50) under setting [1] was determined as 0.204 µM.

As for `N#CCOc1nc(N2CCC(C(=O)N3OCC[C@H]3c3cncnc3)CC2)ncc1F` [Ex. 063], under setting [1], the IC50 was 0.0151 µM.

In the case of `Cc1nnc(C2CCON2C(=O)C2CCN(c3nccc(C(N)=O)n3)CC2)s1` (racemic) [Ex. 089*], under setting [1], the IC50 came to 2.16 µM.

On to `CC1(C(=O)N2OCC[C@H]2c2cncnc2)CCN(c2ncc(F)c(OCC#N)n2)CC1` [Ex. 062], for which the IC50 under setting [1] is 0.0124 µM.

In the case of `CNC(=O)c1cncc(C2CCON2C(=O)C2CCN(c3nccc(C(N)=O)n3)CC2)c1` (racemic) [Ex. 040*], the IC50 under setting [1] is more than 10 µM.

Turning to `Cn1ccc(C2CCON2C(=O)C2CCN(c3cc(C#N)ncn3)CC2)n1` (racemic) [Example 006, 6-[4-[3-(1-methylpyrazol-3-yl)isoxazolidine-2-carbonyl]-1-piperidyl]pyrimidine 4-carbonitrile], the IC50 under setting [1] is 5.6 µM.

With `Cc1ccc([C@@H]2CCON2C(=O)C2CCN(c3ncc(F)c(C(N)=O)n3)CC2)s1` [compound 183, 5-fluoro-2-[4-[(3S)-3-(5-methyl-2-thienyl)isoxazolidine-2-carbonyl]-1-piperidyl]pyrimidine-4-carboxamide], under setting [1], the IC50 amounted to 0.000675 µM.

With `O=C(C1CCN(c2ncnc(Cl)n2)CC1)N1OCC[C@H]1c1cnccn1` [compound 174, [1-(4-chloro-1,3,5-triazin-2-yl)-4-piperidyl]-[(3S)-3-pyrazin-2-ylisoxazolidin-2-yl]methanone], the half-maximal inhibitory concentration (IC50) under setting [1] is 3.03 µM.

In the case of `Cc1cncc([C@@H]2CCON2C(=O)C2CCN(c3ncc(F)c(C(N)=O)n3)CC2)n1` [Ex. 082], the IC50 under setting [1] came out at 0.00325 µM.

For `Cn1ccc(C2CCON2C(=O)C2CCN(c3cc(C(N)=O)ncn3)CC2)n1` (racemic) [Example 008, 6-[4-[3-(1-methylpyrazol-3-yl)isoxazolidine-2-carbonyl]-1-piperidyl] pyrimidine-4-carboxamide TFA salt], the IC50 under setting [1] stood at 5.22 µM.

Turning to `COc1nc(N2CCC(C(=O)N3OCC[C@H]3c3ccc(C#N)cn3)CC2)ncc1F` [compound 117], the IC50 under setting [1] came to 0.0684 µM.
